The source of these data is US7157442B2, “Antibacterial compound” (Sankyo Company, Limited, priority 1999, dated 2007).

Experiment [1] relates to Mycobacterium avium Strain NIHJ 1605. Briefly: In vitro antibacterial activity (1): minimum inhibitory concentration, broth dilution. The conditions noted are these: NIHJ1605, 144 h; Mycobacterium avium NIHJ 1605; Middlebrook 7H9 broth, aerobic culture at 37° C. for 6 days. In kind it is cell-based. (In general: Dilution methods test growth across graded concentrations, often in twofold steps.)

Another experiment has as its system M. tuberculosis Kato. Nature of the experiment: In vitro antibacterial activity (2): MIC by broth dilution method. The experiment is classed as cell-based. As to conditions: Mycobacterium tuberculosis; Middlebrook 7H9 broth, 35° C. for 10–21 days; read-out: MICs against Mycobacterium tuberculosis, M. tuberculosis Kato. Here is the method: The minimum inhibitory concentration (MICs) of the test compounds against Mycobacterium tuberculosis was determined by the broth dilution method. After the solution of a test compound in dimethyl sulfoxide (DMSO) or distilled water was diluted with 50% aqueous acetone or distilled water, each two-fold dilution of the solution was carried out with Middlebrook 7H9 broth containing 0.05% Tween 80, 0.2% dextrose and Middlebrook ADC enrichment. […] The microorganisms cultivated on Ogawa medium were suspended uniformly in Middlebrook 7H9 broth containing 0.05% Tween 80, 0.2% dextrose and Middlebrook ADC enrichment. The microorganism solution was adjusted to about 1×10^7 CFU/mL using a spectrophotometer. The resulting microorganism solution was further diluted with Middlebrook 7H9 broth containing 0.05% Tween 80, 0.2% dextrose and Middlebrook ADC enrichment (final viable cell count: about 1×10^5 CFU/mL). After mixing the diluted microorganism solution with the diluted test compound solution in the test tube, cultivation was performed at 35° C. for 10–21 days. When significant growth was found in the control test tube with no test compound, the MIC was determined as the minimum concentration of the compound at which no colony was recognized macroscopically in the test tube.

Molecules are shown by their SMILES. In brackets after ≈: the same amount, converted by molar mass.

For the compound `CO[C@H]1[C@@H](O)[C@H](n2ccc(=O)[nH]c2=O)O[C@@H]1[C@@H](O[C@H]1OC(C(=O)N[C@H]2CCCCNC2=O)=C[C@H](O)[C@@H]1O)C(N)=O` [Capuramycin, capuramycin, reference compound], the MIC in experiment [1] was 8 µg/mL (≈ 14 µM).

Turning to `CO[C@H]1[C@@H](O)[C@H](n2ccc(=O)[nH]c2=O)O[C@@H]1[C@@H](O[C@H]1OC(C(=O)Nc2ccc(F)c(F)c2)=C[C@H](O)[C@@H]1O)C(N)=O` [Exemplification Compound No. 3712], the MIC in experiment [1] worked out at 2 µg/mL (≈ 3.51 µM); with M. tuberculosis Kato, 1 µg/mL (≈ 1.75 µM).
